Data on 34 compounds can be found in publication PMC11542717 (ADMET & DMPK, 2024).

Molecules are shown by their SMILES. Like-named read-outs stand apart in the source and are kept apart here.

The conditions of series [1]: cited from earlier work; for CHIIAM: pharmaceuticals used for model construction (training set); for CHIIAM (predetermined): calibration set, established by isocratic measurement.
The format of series [2] is physicochemical. As to conditions: IAM PC.DD2 column, pH 7.4, acetonitrile gradient, UV filters.
Series [3] relates to water flea (Daphnia magna). As to conditions: 48 h static, immobilization; ECHA database, converted to -log M; cited from earlier work.
Another series relates to fish species. To be noted: 96 h static; ECHA database, mg/L converted to -log M; cited from earlier work.

On to `COCCc1ccc(OCC(O)CNC(C)C)cc1` (centres unmarked) [Metoprolol], for which the CHIIAM in series [1] was 35.4.
With `CCC(=O)c1ccccc1` [Propiophenone], in series [1], the “CHIIAM (predetermined)” value is reported as 25.9.
Regarding `COc1ccc(NS(=O)(=O)c2ccc(N)cc2)nn1` [Sulfamethoxypyridazine], in series [1], the CHIIAM is recorded as 10.9.
As to `CCCCC(CC)COC(=O)C(C#N)=C(c1ccccc1)c1ccccc1` (centres unmarked) [Octocrylene, octocrylene], the figures for the “CHIIAM (chromatographic phospholipid binding)” value in series [2] and in series [2] (listed as octocrylene) were 60.0 and above 45, respectively. Further, in series [3], the “pEC50 water flea (Daphnia magna), Experimental” value (“pEC50 water flea (Daphnia magna)” for short) is reported as 5.06. Further, in the series on fish species, the “pLC50 fish, Experimental” value was 5.65.
Regarding `CCc1nc(N)nc(N)c1-c1ccc(Cl)cc1` [Pyrimethamine], the CHIIAM in series [1] was 38.2.
With `CN(C)CCC=C1c2ccccc2CCc2ccccc21` [Amitriptyline], the CHIIAM in series [1] is on record as 55.3.
For the compound `NC(=O)N1c2ccccc2C=Cc2ccccc21` [Carbamazepine], the CHIIAM in series [1] was 26.9.
In the case of `CCCCCCC(=O)c1ccccc1` [Heptanophenone], the “CHIIAM (predetermined)” value in series [1] is 45.7.
Turning to `Cc1ccc(C)c(OCCCC(C)(C)C(=O)O)c1` [Gemfibrozil], the CHIIAM in series [1] was 33.7.
Consider `CCCCC(CC)COC(=O)c1ccccc1O` (centres unmarked) [Octisalate, octisalate], for which the “CHIIAM (chromatographic phospholipid binding)” value in series [2] is on record as 55.1; in series [2] (listed as octisalate) it was above 45. In series [3], the “pEC50 water flea (Daphnia magna)” value is reported as 5.58. Also, the “pLC50 fish, Experimental” value with fish species is recorded as 4.40.
For `CCCCCCCC(=O)c1ccccc1` [Octanophenone], in series [1], the “CHIIAM (predetermined)” value is reported as 49.4.
Turning to `CC1COc2c(N3CCN(C)CC3)c(F)cc3c(=O)c(C(=O)O)cn1c23` (centres unmarked) [Ofloxacin], the CHIIAM in series [1] is given as 28.9.
In the case of `CCCCC(CC)COC(=O)C=Cc1ccc(OC)cc1` (centres unmarked) [Octinoxate, octinoxate], the “CHIIAM (chromatographic phospholipid binding)” value in series [2] was 54.2; in series [2] (listed as octinoxate), above 45. Besides, the “pEC50 water flea (Daphnia magna)” value in series [3] was 5.03.
Turning to `CC1CCC(C(C)C)C(OC(=O)c2ccccc2N)C1` (centres unmarked) [Meradimate, meradimate], the “CHIIAM (chromatographic phospholipid binding)” value in series [2] was 56.9; in series [2] (listed as meradimate), above 45. The “pEC50 water flea (Daphnia magna)” value in series [3] is on record as 5.24. The “pLC50 fish, Experimental” value in the series on fish species is 4.48.
For the compound `CCCCC(CC)COC(=O)c1ccc(N(C)C)cc1` (centres unmarked) [Padimate O, padimate O], the “CHIIAM (chromatographic phospholipid binding)” value in series [2] stood at 53.6. The “pEC50 water flea (Daphnia magna)” value in series [3] was 4.69. In the series on fish species, the “pLC50 fish, Experimental” value is recorded as 4.85.
Regarding `CC1CC(OC(=O)c2ccccc2O)CC(C)(C)C1` (centres unmarked) [Homosalate, homosalate], the “CHIIAM (chromatographic phospholipid binding)” value in series [2] is 56.8; in series [2] (listed as homosalate), above 45.
As for `Nc1ccc(C(=O)O)cc1` [4-Aminobenzoic Acid, 4-aminobenzoic acid], the “CHIIAM (chromatographic phospholipid binding)” value is reported as 3.30 in series [2] and below 20 in series [2] (listed as aminobenzoic acid). Moreover, in series [3], the “pEC50 water flea (Daphnia magna)” value was 3.26. For the same compound, the “pLC50 fish, Experimental” value in the series on fish species is given as 2.12.
With `Nc1ccc(S(=O)(=O)Nc2nccs2)cc1` [Sulfathiazole], the CHIIAM in series [1] was 11.0.
In the case of `COc1ccc(C(=O)c2ccccc2O)c(O)c1` [Dioxybenzone, dioxybenzone], the “CHIIAM (chromatographic phospholipid binding)” value in series [2] stood at 39.9. In addition, the “pEC50 water flea (Daphnia magna)” value in series [3] is listed as 4.76.
As for `COc1cc(O)c(C(=O)c2ccccc2)cc1S(=O)(=O)O` [Sulisobenzone, sulisobenzone], the figures for the “CHIIAM (chromatographic phospholipid binding)” value in series [2] and in series [2] (listed as sulisobenzone) were 14.3 and below 20, respectively. Besides, the “pEC50 water flea (Daphnia magna)” value in series [3] is listed as 3.79. In the series with fish species, the “pLC50 fish, Experimental” value is given as 2.69.
In the case of `COc1ccc(C(=O)CC(=O)c2ccc(C(C)(C)C)cc2)cc1` [Avobenzone, avobenzone], the “CHIIAM (chromatographic phospholipid binding)” value in series [2] is 53.4; in series [2] (listed as avobenzone) it was above 45. Further, the “pEC50 water flea (Daphnia magna)” value in series [3] is 5.20.
Consider `Cc1ncc([N+](=O)[O-])n1CCO` [Metronidazole], for which the CHIIAM in series [1] is on record as -4.81.
Regarding `COc1ccc(C(=O)c2ccccc2)c(O)c1` [Oxybenzone, oxybenzone], the “CHIIAM (chromatographic phospholipid binding)” value in series [2] came to 40.8. Besides, the “pEC50 water flea (Daphnia magna)” value in series [3] is reported as 4.92. Moreover, the “pLC50 fish, Experimental” value in the series with fish species was 4.78.
In the case of `COc1cc(NS(=O)(=O)c2ccc(N)cc2)nc(OC)n1` [Sulfadimethoxine], in series [1], the CHIIAM is listed as 13.8.
As to `CC(=O)c1ccccc1` [Acetophenone], the “CHIIAM (predetermined)” value in series [1] is 17.2.
Take `O=S(=O)(O)c1ccc2[nH]c(-c3ccccc3)nc2c1` [Ensulizole, ensulizole]: the “CHIIAM (chromatographic phospholipid binding)” value is 13.2 in series [2] and below 20 in series [2] (listed as ensulizole). The “pEC50 water flea (Daphnia magna)” value in series [3] is 3.44. Besides, in the series with fish species, the “pLC50 fish, Experimental” value is on record as 2.91.
As to `CC1(C)S[C@@H]2[C@H](NC(=O)[C@H](N)c3ccccc3)C(=O)N2[C@H]1C(=O)O` [Ampicillin], in series [1], the CHIIAM is reported as 10.5.
As for `CCCCC(=O)c1ccccc1` [Valerophenone], the “CHIIAM (predetermined)” value in series [1] is recorded as 37.3.
Turning to `Cn1c(=O)c2[nH]cnc2n(C)c1=O` [Theophylline], the CHIIAM in series [1] is reported as 1.80.
With `CCCC(=O)c1ccccc1` [Butyrophenone], the “CHIIAM (predetermined)” value in series [1] was 32.0.
Turning to `COc1ccc([C@@H]2Sc3ccccc3N(CCN(C)C)C(=O)[C@@H]2OC(C)=O)cc1` [Diltiazem], the CHIIAM in series [1] was 42.0.
`CCCCCC(=O)c1ccccc1` [Hexanophenone]: in series [1], the “CHIIAM (predetermined)” value is 41.8.
As for `O=C(O)Cc1ccccc1Nc1c(Cl)cccc1Cl` [Diclofenac], the CHIIAM in series [1] is recorded as 34.1.
On to `Nc1ccc(S(=O)(=O)Nc2ccc(Cl)nn2)cc1` [Sulfachlorpyridazine], for which, in series [1], the CHIIAM is 7.67.
